Data published in paper PMC9750858, “Rapid biosensor development using plant hormone receptors as reprogrammable scaffolds” (Nature Biotechnology, 2022).
Numbering of substitutions follows the chain as printed. “And” between values parts separate entries of the source, which are not always exact repeats. Equal entries are not always repeated.

Experiments:
[1] = target: T1, PYR1^WIN (Arabidopsis thaliana, UniProt O49686, A160I/D26G/E4G/F159A/K59Q/Y23H); assay: Yeast transcriptional activation circuit Z4-PYR1/VP64-ΔN-HAB1, GFP reporter, PYR1^WIN; conditions: for whole-cell GFP fluorescence (Fig. 3b source data): 12 h, replicates
T1 sequence (Q9CAJ0 179-511): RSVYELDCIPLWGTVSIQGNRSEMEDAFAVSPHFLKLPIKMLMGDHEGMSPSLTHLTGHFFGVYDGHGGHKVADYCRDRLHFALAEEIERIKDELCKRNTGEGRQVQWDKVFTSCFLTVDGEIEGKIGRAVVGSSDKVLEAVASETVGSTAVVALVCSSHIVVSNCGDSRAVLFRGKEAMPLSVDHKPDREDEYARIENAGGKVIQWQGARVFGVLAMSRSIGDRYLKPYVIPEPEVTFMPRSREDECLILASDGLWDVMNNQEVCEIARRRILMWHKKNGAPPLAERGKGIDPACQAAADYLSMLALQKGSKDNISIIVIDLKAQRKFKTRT
T1 sequence (O49686 other isoform, or with tags, fused parts or gaps E4G/Y23H/D26G/K59Q/F159A/A160I): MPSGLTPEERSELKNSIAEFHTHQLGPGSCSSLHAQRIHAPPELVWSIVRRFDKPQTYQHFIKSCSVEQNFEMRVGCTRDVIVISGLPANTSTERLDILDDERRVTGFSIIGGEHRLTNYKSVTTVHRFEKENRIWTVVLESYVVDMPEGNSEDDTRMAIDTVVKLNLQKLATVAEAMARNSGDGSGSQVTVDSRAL

[2] = target: T2, PYR1^WIN-M (Arabidopsis thaliana, UniProt O49686, A160I/D26G/E4G/F159A/H60P/K59Q/N90S/Y23H); assay: ELISA-like plate assay, immobilized PYR1^WIN-M, biotinylated ΔN-HAB1^T+; type: binding; conditions: for ELISA signal generation, receptor cross-reactivity (source data): replicates, 212
T2 construct: made in house
T2 sequence (O49686 with tags, fused parts or gaps E4G/Y23H/D26G/K59Q/H60P/N90S/F159A/A160I): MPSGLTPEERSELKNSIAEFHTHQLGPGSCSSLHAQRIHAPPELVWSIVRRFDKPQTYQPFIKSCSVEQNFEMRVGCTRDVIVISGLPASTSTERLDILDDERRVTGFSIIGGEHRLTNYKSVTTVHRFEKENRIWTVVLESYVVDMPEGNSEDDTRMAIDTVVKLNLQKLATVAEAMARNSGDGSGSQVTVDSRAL

[3] = target: T3, PYR1^WIN / ΔN-HAB1 (Arabidopsis thaliana, UniProt O49686, A160I/D26G/E4G/F159A/K59Q/Y23H); assay: Ligand/receptor-mediated PP2C (ΔN-HAB1 phosphatase) inhibition, fluorogenic substrate, PYR1^WIN; type: biochemical
T3 construct: 6xHis (N); made in house; host or cells: E. coli BL21 (DE3) pLysS
T3 sequence (O49686 with tags, fused parts or gaps E4G/Y23H/D26G/K59Q/F159A/A160I): T2 sequence (O49686 with tags, fused parts or gaps E4G/Y23H/D26G/K59Q/H60P/N90S/F159A/A160I) with P60H, S90N
Description: Coding sequences of the cannabinoid sensors were cloned into the protein expression vector pET28a to encode 6×His-tag-receptor fusions. Constructs were sequenced and transformed into the BL21 (DE3) pLysS E. coli strain for heterologous expression with IPTG (1 mM), followed by purification, using affinity chromatography, as previously reported. In vitro validation of evolved sensors was performed by using recombinant sensors and ΔN-HAB1 (HAB1 Δ1–178, ref. [36]) proteins, as previously described. […] Cannabinoid concentration curves ranged from 4 to 10,000 nM, and median inhibitory concentrations for PP2C inhibition were obtained via fluorescent measurement in the presence of 1 mM 4-methylumbelliferyl phosphate.

[4] = test system: PYR1-derived cannabinoid receptors (PYR1 mutants) binding HAB1
[5] = target: T1, PYR1^WIN; assay: Split NanoLuc luciferase complementation in yeast, NLuc^N-PYR1^WIN/NLuc^C-ΔN-HAB1; type: cell-based; design: >PYR1-WIN; expressed in transfected cells; host or cells: Saccharomyces cerevisiae; conditions: for LUM, split luciferase luminescence (Fig. 3c source data): replicates

SMILES: Cc1c(C(=O)c2cccc3ccccc23)c2cccc3c2n1C(CN1CCOCC1)CO3 (single isomer, unassigned; (+)) [WIN, (+)-WIN 55,212-2]
- EC50 [1]: 28 nM
- whole-cell GFP fluorescence (Fig. 3b source data) ([1]; [Ligand] 0.0001 uM): 1.509 and 1.618 and 1.562
- whole-cell GFP fluorescence (Fig. 3b source data) ([1]; [Ligand] 0.001 uM): 1.581 and 1.833 and 1.779
- whole-cell GFP fluorescence (Fig. 3b source data) ([1]; [Ligand] 0.01 uM): 2.798 and 2.733 and 2.756
- whole-cell GFP fluorescence (Fig. 3b source data) ([1]; [Ligand] 0.1 uM): 4.085 and 3.967 and 4.046
- whole-cell GFP fluorescence (Fig. 3b source data) ([1]; [Ligand] 0.5 uM): 4.169 and 4.494 and 4.506
- whole-cell GFP fluorescence (Fig. 3b source data) ([1]; [Ligand] 1 uM): 4.972 and 4.595 and 4.6223
- whole-cell GFP fluorescence (Fig. 3b source data) ([1]; [Ligand] 5 uM): 4.959 and 4.89 and 5.277
- whole-cell GFP fluorescence (Fig. 3b source data) ([1]; [Ligand] 10 uM): 5.105 and 5.0049 and 4.874
- whole-cell GFP fluorescence (Fig. 3b source data) ([1]; [Ligand] 100 uM): 4.986 and 5.066 and 4.884
- ELISA signal generation, receptor cross-reactivity (source data) ([2]; cannabinoid at 2 nM): 1.487 and 1.277 and 1.151
- ELISA signal generation, receptor cross-reactivity (source data) ([2]; cannabinoid at 2 μM): 3.378 and 3.384 and 3.484
- ELISA absorbance signal (source data) ([2]; saline, ligand 1e-6 uM): 0.133 and 0.126 and 0.127
- ELISA absorbance signal (source data) ([2]; saline, ligand 1e-5 uM): 0.152 and 0.136 and 0.148
- ELISA absorbance signal (source data) ([2]; saline, ligand 0.0001 uM): 0.162 and 0.157 and 0.179
- ELISA absorbance signal (source data) ([2]; saline, ligand 0.001 uM): 0.26 and 0.252 and 0.274
- ELISA absorbance signal (source data) ([2]; saline, ligand 0.01 uM): 0.302 and 0.321 and 0.336
- ELISA absorbance signal (source data) ([2]; saline, ligand 0.1 uM): 0.327 and 0.325
- ELISA absorbance signal (source data) ([2]; saline, ligand 1 uM): 0.315 and 0.35 and 0.349
- ELISA absorbance signal (source data) ([2]; saline, ligand 10 uM): 0.341 and 0.349 and 0.35
- ELISA absorbance signal (source data) ([2]; saliva, ligand 1e-6 uM): 0.097 and 0.09 and 0.095
- ELISA absorbance signal (source data) ([2]; saliva, ligand 1e-5 uM): 0.096 and 0.098
- ELISA absorbance signal (source data) ([2]; saliva, ligand 0.0001 uM): 0.124 and 0.126 and 0.123
- ELISA absorbance signal (source data) ([2]; saliva, ligand 0.001 uM): 0.239 and 0.257 and 0.242
- ELISA absorbance signal (source data) ([2]; saliva, ligand 0.01 uM): 0.374 and 0.38 and 0.358
- ELISA absorbance signal (source data) ([2]; saliva, ligand 0.1 uM): 0.397 and 0.408 and 0.382
- ELISA absorbance signal (source data) ([2]; saliva, ligand 1 uM): 0.436 and 0.42 and 0.431
- ELISA absorbance signal (source data) ([2]; serum, ligand 1e-6 uM): 0.103 and 0.1 and 0.092
- ELISA absorbance signal (source data) ([2]; serum, ligand 1e-5 uM): 0.098 and 0.102
- ELISA absorbance signal (source data) ([2]; serum, ligand 0.0001 uM): 0.108 and 0.106 and 0.1
- ELISA absorbance signal (source data) ([2]; serum, ligand 0.001 uM): 0.141 and 0.195 and 0.127
- ELISA absorbance signal (source data) ([2]; serum, ligand 0.01 uM): 0.239 and 0.24
- ELISA absorbance signal (source data) ([2]; serum, ligand 0.1 uM): 0.319 and 0.268 and 0.325
- ELISA absorbance signal (source data) ([2]; serum, ligand 1 uM): 0.312 and 0.316 and 0.329
- ELISA absorbance signal (source data) ([2]; urine, ligand 1e-6 uM): 0.141 and 0.142 and 0.134
- ELISA absorbance signal (source data) ([2]; urine, ligand 1e-5 uM): 0.148 and 0.138
- ELISA absorbance signal (source data) ([2]; urine, ligand 0.0001 uM): 0.162 and 0.161 and 0.149
- ELISA absorbance signal (source data) ([2]; urine, ligand 0.001 uM): 0.248 and 0.231 and 0.225
- ELISA absorbance signal (source data) ([2]; urine, ligand 0.01 uM): 0.338 and 0.33 and 0.313
- ELISA absorbance signal (source data) ([2]; urine, ligand 0.1 uM): 0.356 and 0.348 and 0.341
- ELISA absorbance signal (source data) ([2]; urine, ligand 1 uM): 0.387 and 0.372 and 0.376
- EC50 [3]: 72 nM
- inhibition of ΔN-HAB1 phosphatase activity relative to mock (Fig. 3a source data) ([3]; [Ligand] 0.004115 uM, replicates, 0.004115 µM): -0.3447 and 3.327 and 8.558
- inhibition of ΔN-HAB1 phosphatase activity relative to mock (Fig. 3a source data) ([3]; [Ligand] 0.012346 uM, replicates, 0.012346 µM): 13.6846 and 17.5801
- inhibition at 0.012346 µM ([3]; [Ligand] 0.012346 uM, replicates, read-out: inhibition of ΔN-HAB1 phosphatase activity relative to mock (Fig. 3a source data)): 13.7%
- inhibition of ΔN-HAB1 phosphatase activity relative to mock (Fig. 3a source data) ([3]; [Ligand] 0.037037 uM, replicates, 0.037037 µM): 27.3559 and 29.1117
- inhibition at 0.037037 µM ([3]; [Ligand] 0.037037 uM, replicates, read-out: inhibition of ΔN-HAB1 phosphatase activity relative to mock (Fig. 3a source data)): 28.7%
- inhibition of ΔN-HAB1 phosphatase activity relative to mock (Fig. 3a source data) ([3]; [Ligand] 0.111111 uM, replicates, 0.111111 µM): 63.5233 and 58.9433
- inhibition at 0.111111 µM ([3]; [Ligand] 0.111111 uM, replicates, read-out: inhibition of ΔN-HAB1 phosphatase activity relative to mock (Fig. 3a source data)): 61.1%
- inhibition of ΔN-HAB1 phosphatase activity relative to mock (Fig. 3a source data) ([3]; [Ligand] 0.333333 uM, replicates, 0.333333 µM): 83.1534 and 83.7629
- inhibition at 0.333333 µM ([3]; [Ligand] 0.333333 uM, replicates, read-out: inhibition of ΔN-HAB1 phosphatase activity relative to mock (Fig. 3a source data)): 84.4%
- inhibition of ΔN-HAB1 phosphatase activity relative to mock (Fig. 3a source data) ([3]; [Ligand] 1 uM, replicates, 1 µM): 93.2666 and 92.7582
- inhibition at 1 µM ([3]; [Ligand] 1 uM, replicates, read-out: inhibition of ΔN-HAB1 phosphatase activity relative to mock (Fig. 3a source data)): 93.4%
- inhibition of ΔN-HAB1 phosphatase activity relative to mock (Fig. 3a source data) ([3]; [Ligand] 10 uM, replicates, 10 µM): 93.1102 and 92.715
- inhibition at 10 µM ([3]; [Ligand] 10 uM, replicates, read-out: inhibition of ΔN-HAB1 phosphatase activity relative to mock (Fig. 3a source data)): 97.6%
- cannabinoid concentration to which CB-S1 library clones respond (as low as) ([4]; clones from shuffled library CB-S1): 50 nM
- stereoisomer recognized by the evolved WIN receptor ([4]; selections conducted using a racemate): recognizes the biologically active (+)-WIN 55,212-2 stereoisomer
- EC50 [5]: 56 nM
- LUM, split luciferase luminescence (Fig. 3c source data) ([5]; [Ligand] 0.0001 uM): 4.094 and 3.848 and 3.642
- LUM, split luciferase luminescence (Fig. 3c source data) ([5]; [Ligand] 0.001 uM): 4.593 and 4.28 and 4.174
- LUM, split luciferase luminescence (Fig. 3c source data) ([5]; [Ligand] 0.01 uM): 5.448 and 5.829 and 5.793
- LUM, split luciferase luminescence (Fig. 3c source data) ([5]; [Ligand] 0.1 uM): 9.293 and 8.992 and 7.439
- LUM, split luciferase luminescence (Fig. 3c source data) ([5]; [Ligand] 1 uM): 12.392 and 10.463 and 10.193
- LUM, split luciferase luminescence (Fig. 3c source data) ([5]; [Ligand] 10 uM): 13.953 and 10.293 (2×)
